The values that follow come from ChEMBL document CHEMBL2169838, “Synthesis and biological evaluation of the 1-arylpyrazole class of σ(1) receptor antagonists: identification of 4-{2-[5-methyl-1-(naphthalen-2-yl)-1H-pyrazol-3-yloxy]ethyl}morpholine (S1RA, E-52862)” (J Med Chem, 2012).

Data set [1] concerns the target Sigma non-opioid intracellular receptor 1 (Homo sapiens, UniProt Q99720). Briefly: biochemical.
Description: Displacement of [3H](+)pentazocine from human sigma 1 receptor transfected in HEK293 cell membranes after 120 mins by scintillation counter
Data set [2] is described as follows: Displacement of [3H]di-o-tolylguanidine from sigma 2 receptor in guinea pig brain membranes after 120 mins by scintillation counter. The class given is cell membranes, Cavia porcellus, Membrane.
Data set [3] in a line: Intrinsic clearance in human liver microsomes assessed as per mg of protein at 10 uM. Format: ADME, Microsome. The following applies: read-out: CLH. For orientation: Liver microsomes are vesicles of endoplasmic reticulum, rich in cytochrome P450 enzymes.
A further data set relates to Mus musculus. Briefly: Analgesic activity in CD1 mouse assessed as inhibition of capsaicin-induced mechanical hypersensitivity at 16 mg/kg, ip administered 15 mins prior to capsaicin challenge measured 30 mins post capsaicin challenge. Format: functional. The following applies: route intraperitoneal.
Data set [4] deals with Voltage-gated inwardly rectifying potassium channel KCNH2 (Homo sapiens, UniProt Q12809).
Description: Inhibition of human ERG transfected in HEK293 cell membranes by whole cell patch clamp assay

SMILES strings stand for the structures. Some results are limits rather than exact numbers.

Chain of Sigma non-opioid intracellular receptor 1 (Q99720 whole entry): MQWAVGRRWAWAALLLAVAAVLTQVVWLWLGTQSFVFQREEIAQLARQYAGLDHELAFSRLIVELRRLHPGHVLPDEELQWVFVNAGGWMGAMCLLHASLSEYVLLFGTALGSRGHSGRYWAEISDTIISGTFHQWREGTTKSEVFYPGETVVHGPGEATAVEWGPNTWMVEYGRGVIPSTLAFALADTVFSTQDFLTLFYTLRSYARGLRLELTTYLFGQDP
Chain of Voltage-gated inwardly rectifying potassium channel KCNH2 (Q12809 whole entry): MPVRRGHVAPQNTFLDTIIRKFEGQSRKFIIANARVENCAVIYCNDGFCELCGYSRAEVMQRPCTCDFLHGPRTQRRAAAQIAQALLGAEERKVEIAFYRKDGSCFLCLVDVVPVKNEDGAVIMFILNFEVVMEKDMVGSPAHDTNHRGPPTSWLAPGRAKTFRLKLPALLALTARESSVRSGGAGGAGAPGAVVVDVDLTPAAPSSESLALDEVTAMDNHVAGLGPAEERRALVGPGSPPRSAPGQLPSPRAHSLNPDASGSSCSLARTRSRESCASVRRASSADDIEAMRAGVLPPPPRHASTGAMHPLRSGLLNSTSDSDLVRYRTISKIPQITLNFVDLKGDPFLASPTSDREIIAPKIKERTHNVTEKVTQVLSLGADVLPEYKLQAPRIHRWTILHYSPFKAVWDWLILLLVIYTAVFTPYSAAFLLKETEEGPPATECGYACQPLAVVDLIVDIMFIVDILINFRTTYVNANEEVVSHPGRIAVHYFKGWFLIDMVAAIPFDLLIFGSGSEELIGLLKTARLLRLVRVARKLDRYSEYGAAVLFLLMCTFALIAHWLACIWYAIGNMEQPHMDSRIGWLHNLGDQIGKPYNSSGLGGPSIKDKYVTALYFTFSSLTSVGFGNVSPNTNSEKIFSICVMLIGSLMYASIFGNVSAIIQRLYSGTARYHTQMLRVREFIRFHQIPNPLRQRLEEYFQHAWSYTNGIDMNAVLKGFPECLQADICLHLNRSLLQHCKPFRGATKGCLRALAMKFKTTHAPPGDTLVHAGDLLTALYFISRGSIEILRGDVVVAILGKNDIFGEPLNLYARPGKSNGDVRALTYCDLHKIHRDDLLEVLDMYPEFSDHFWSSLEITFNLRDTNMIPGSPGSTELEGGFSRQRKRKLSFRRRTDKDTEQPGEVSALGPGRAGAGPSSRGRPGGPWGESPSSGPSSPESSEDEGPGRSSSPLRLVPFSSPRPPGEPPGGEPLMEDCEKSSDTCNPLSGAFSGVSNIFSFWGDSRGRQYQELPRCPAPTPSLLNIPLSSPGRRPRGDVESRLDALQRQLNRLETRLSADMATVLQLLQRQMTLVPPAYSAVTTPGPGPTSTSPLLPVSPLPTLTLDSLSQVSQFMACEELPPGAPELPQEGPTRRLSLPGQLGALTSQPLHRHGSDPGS

With `OC(COc1ccn(-c2ccc(Cl)c(Cl)c2)n1)CN1CCOCC1` (stereo not drawn), the Ki is 128 nM in data set [1] and greater than 1000 nM in data set [2].
Regarding `Cc1cc(OCCN2CCCCC2)nn1-c1ccc(Cl)c(Cl)c1`, the Ki in data set [1] came to 5.5 nM; in data set [2], 209 nM.
On the same counts, the results for `Clc1ccc(-n2ccc(OCCOCCN3CCCCC3)n2)cc1Cl` are 36.8 nM and 14.2 nM.
Consider `CCOC(=O)N1CCN(CCOc2cc(C)n(-c3ccc(Cl)c(Cl)c3)n2)CC1`, for which the values for the Ki in data set [1] and in data set [2] were 44 nM and greater than 1000 nM, respectively. For the same molecule, in data set [3], the microsomal CLint at 10 µM was determined as 26 µL/min/mg.
In the case of `CCN(CC)CCOc1cc(C)n(-c2ccc3ccccc3c2)n1`, the Ki in data set [1] came out at 47 nM; in data set [2] it was 589 nM.
On to `Cc1c(OCCN2CCOCC2)nn(-c2ccc(Cl)c(Cl)c2)c1C`, for which the Ki is 9.4 nM in data set [1] and 351 nM in data set [2].
As for `c1cn(C2CCCCC2)nc1OCCN1CCOCC1`, the results for the Ki in data set [1] and in data set [2] were 23.1 nM and greater than 1000 nM, respectively. Further, in the data set on Mus musculus, the inhibition in vivo at 16 mg/kg is 20%. The molecule further came in with a 50% inhibitory concentration (IC50) in data set [4] greater than 10000 nM.
For `Cc1c(OCCN2CCOCC2)nn(-c2ccc3ccccc3c2)c1C`, the values for the Ki in data set [1] and in data set [2] were 139 nM and greater than 1000 nM, respectively.
In the same order, the values of `Cc1cc(OCCNC2CCCCC2)nn1-c1ccc(Cl)c(Cl)c1` are 8.5 nM and 8.8 nM.
Regarding `Cc1cc(OCCN2CCOCC2)nn1-c1ccccc1`, the Ki in data set [1] and in data set [2] was greater than 1000 nM throughout.
In the case of `CC(=O)c1c(OCCN2CCOCC2)nn(-c2ccc(Cl)c(Cl)c2)c1C`, the Ki in data set [1] was 741 nM; in data set [2], greater than 1000 nM.
On the same counts, the results for `Cc1cc(OCCCN2CCN(C)CC2)nn1-c1ccc(Cl)c(Cl)c1` are 13.3 nM and 170 nM.
Consider `Clc1ccc(-n2ccc(NCCN3CCOCC3)n2)cc1Cl`, for which the figures for the Ki in data set [1] and in data set [2] were 39.4 nM and 562 nM, respectively.
For `Clc1ccc(-n2nc(OCCN3CCOCC3)cc2-c2ccccc2)cc1Cl`, the Ki in data set [1] is 224 nM; in data set [2], greater than 1000 nM.
On the same counts, the results for `CC(C)(C)n1ccc(OCCN2CCOCC2)n1` are greater than 1000 nM and greater than 1000 nM.
On the same counts, the results for `CC(=O)N1CCN(CCCCOc2cc(C)n(-c3ccc4ccccc4c3)n2)CC1` are 296 nM and 324 nM.
Regarding `CC(C)c1cc(OCCN2CCOCC2)nn1-c1ccc(Cl)c(Cl)c1`, the Ki is 172 nM in data set [1] and greater than 1000 nM in data set [2].
For `CC(=O)C1CCN(CCOc2ccn(-c3ccc(Cl)c(Cl)c3)n2)CC1`, the Ki in data set [1] was 7.2 nM; in data set [2], greater than 1000 nM. The inhibition in vivo at 16 mg/kg in the data set on Mus musculus turned out to be 73%. The microsomal CLint at 10 µM in data set [3] was 7 µL/min/mg. Further, the concentration for half-maximal inhibition (IC50) in data set [4] amounted to 4500 nM.
As for `Cc1cc(OCCCCN2CCOCC2)nn1-c1ccc2ccccc2c1`, the Ki in data set [1] came to 99.1 nM; in data set [2], 428 nM.
In the same order, the values of `Clc1ccc(-n2ccc(OCCCCN3CCOCC3)n2)cc1Cl` are 17.6 nM and 829 nM.
In the same order, the values of `Clc1ccc(-n2ccc(NCCN3CCCCC3)n2)cc1Cl` are 9.5 nM and 90.5 nM.
On the same counts, the results for `Cc1cc(OCCCCn2ccc3c2CCCC3=O)nn1-c1ccc(Cl)c(Cl)c1` are greater than 1000 nM and greater than 1000 nM.
On to `COCCN(C)CCCCOc1ccn(-c2ccc(Cl)c(Cl)c2)n1`, for which the Ki worked out at 8.2 nM in data set [1] and 66.3 nM in data set [2].
With `Cc1cc(SCCN2CCOCC2)nn1-c1ccc(Cl)c(Cl)c1`, the Ki in data set [1] is 14.2 nM; in data set [2], greater than 1000 nM. Besides, in data set [3], the microsomal CLint at 10 µM is 37 µL/min/mg. Also, in data set [4], the IC50 was greater than 10000 nM.
`Cc1cc(OCCN2CCOCC2=O)nn1-c1ccc2ccccc2c1`: the inhibitory constant (Ki) in data set [1] and in data set [2] was greater than 1000 nM in each case.
On to `Cc1cc(OCCN2CCCCCC2)nn1-c1ccc(Cl)c(Cl)c1`, for which the Ki stood at 9.4 nM in data set [1] and 63.5 nM in data set [2].
In the case of `Clc1ccc(-n2ccc(OCCN3CCCC3)n2)cc1Cl`, the Ki in data set [1] is 15.7 nM; in data set [2], 23.7 nM.
On the same counts, the results for `Cc1cc(OCCN2CCOCC2)nn1-c1cccc(Cl)c1` are 180 nM and greater than 1000 nM.
Consider `Cc1cc(OCCCCN2CCCCC2)nn1-c1ccc(Cl)c(Cl)c1`, for which the Ki in data set [1] is 7.1 nM; in data set [2], 47.5 nM.
In the case of `Cc1cc(OCCN2CCOCC2)nn1-c1ccc(Cl)c(Cl)c1`, the inhibition in vivo at 16 mg/kg in the data set on Mus musculus stood at 25%. In addition, the microsomal CLint at 10 µM in data set [3] turned out to be 12 µL/min/mg. This molecule also returned a Ki in data set [2] greater than 1000 nM.
Take `CCN(CC)CCCCOc1cc(C)n(-c2ccc(Cl)c(Cl)c2)n1`: the figures for the Ki in data set [1] and in data set [2] were 11.7 nM and 45.5 nM, respectively.
In the case of `Cc1cc(OCCN2CCOCC2)nn1-c1ccc(Cl)cc1Cl`, the Ki in data set [1] was 44 nM; in data set [2], greater than 1000 nM. In addition, the microsomal CLint at 10 µM in data set [3] is 25 µL/min/mg.
Consider `CN1CCN(CCCOc2ccn(-c3ccc(Cl)c(Cl)c3)n2)CC1`, for which the inhibition constant (Ki) came out at 16.5 nM in data set [1] and 307 nM in data set [2].
For the molecule `COc1ccc(-n2nc(OCCN3CCOCC3)cc2C)cc1`, the Ki in data set [1] and in data set [2] was greater than 1000 nM each time.
As to `Cc1cc(OCCCCN2CCOCC2)nn1-c1ccc(Cl)c(Cl)c1`, the inhibitory constant (Ki) in data set [1] stood at 13.3 nM; in data set [2], 245 nM.
Turning to `CCN(CC)CCCCOc1ccn(-c2ccc(Cl)c(Cl)c2)n1`, the inhibitory constant (Ki) in data set [1] was 17.2 nM; in data set [2], 104 nM.
In the same order, the values of `Cc1cc(OCCCCN2CCC(c3ccccc3)CC2)nn1-c1ccc(Cl)c(Cl)c1` are 26 nM and 26.7 nM.
In the same order, the values of `CN(CCCCOc1ccn(-c2ccc(Cl)c(Cl)c2)n1)Cc1ccccc1` are 24 nM and 46.3 nM.
In the case of `Cc1cc(OCCN2CCN(c3ccccc3)CC2)nn1-c1ccc(Cl)c(Cl)c1`, the figures for the Ki in data set [1] and in data set [2] were 14.8 nM and 563 nM, respectively.
As for `Cc1cc(OCCCCN2CCN(C)CC2)nn1-c1ccc(Cl)c(Cl)c1`, the Ki in data set [1] is 9.9 nM; in data set [2], 102 nM.
In the same order, the values of `O=S(=O)(CCN1CCOCC1)OCCOc1ccn(-c2ccc(Cl)c(Cl)c2)n1` are 879 nM and greater than 1000 nM.
In the same order, the values of `O=C(CN1CCCCC1)Nc1ccn(-c2ccc(Cl)c(Cl)c2)n1` are 80.8 nM and greater than 1000 nM.
On the same counts, the results for `Clc1ccc(-n2ccc(OCCN3CCOCC3)n2)cc1` are 17.8 nM and 357 nM.
With `Cc1cc(OCCN2CCCC2)nn1-c1ccc(Cl)c(Cl)c1`, the Ki worked out at 5.2 nM in data set [1] and 483 nM in data set [2].
In the same order, the values of `Cc1cc(OCCCCN2CCCC2)nn1-c1ccc(Cl)c(Cl)c1` are 6.9 nM and 12.6 nM.
On the same counts, the results for `Cc1cc(OCCn2ccnc2)nn1-c1ccc(Cl)c(Cl)c1` are 294 nM and greater than 1000 nM.
On the same counts, the results for `Clc1ccc(-n2ccc(OCCN3CCCCC3)n2)cc1Cl` are 16.7 nM and 64.7 nM.
In the case of `Cc1cc(OCCN2CCOCC2)n(-c2ccc3ccccc3c2)n1`, the Ki in data set [1] and in data set [2] was greater than 1000 nM in each case.
In data set [2], `O=C(CCCN1CCC(O)(c2ccc(Cl)cc2)CC1)c1ccc(F)cc1` [HALOPERIDOL] had an inhibition constant Ki of 22 nM.
For the molecule `CC1CCN(CCOc2ccn(-c3ccc(Cl)c(Cl)c3)n2)CC1`, the results for the Ki in data set [1] and in data set [2] were 8.6 nM and 32.8 nM, respectively.
As for `Cc1cc(OCCCCN2C[C@@H](C)O[C@@H](C)C2)nn1-c1ccc2ccccc2c1`, the Ki in data set [1] was determined as 65 nM; in data set [2], 226 nM.
On the same counts, the results for `Clc1ccc(-n2ccc(OCCN3CCOCC3)n2)cc1Cl` are 8.2 nM and 280 nM.
`C[C@@H]1CN(CCCCOc2ccn(-c3ccc(Cl)c(Cl)c3)n2)C[C@H](C)O1`: the results for the Ki in data set [1] and in data set [2] were 14.8 nM and 153 nM, respectively.
For the molecule `CN1CCN(CCc2ccc(Cl)c(Cl)c2)CC1`, the Ki in data set [1] amounted to 6.3 nM; in data set [2], 318 nM.
In the same order, the values of `CC(=O)N1CCN(CCOc2cc(C)n(-c3ccc4ccccc4c3)n2)CC1` are 83.4 nM and greater than 1000 nM.
For `Clc1ccc(-n2ccc(OCCN3CCCCCC3)n2)cc1Cl`, the Ki in data set [1] came out at 8.9 nM.
In the case of `Cc1cc(OCCCCn2ccnc2)nn1-c1ccc(Cl)c(Cl)c1`, the Ki was 854 nM in data set [1] and greater than 1000 nM in data set [2].
In the same order, the values of `Cc1cc(OCCN2CCC(n3cnc4cccnc43)CC2)nn1-c1ccc(Cl)c(Cl)c1` are 16 nM and 435 nM.
In the same order, the values of `Cc1cc(OCCN2CCCC2)nn1-c1ccc2ccccc2c1` are 9.9 nM and 395 nM.
In the same order, the values of `Cc1cc(OCCCN2CCCC2)nn1-c1ccc(Cl)c(Cl)c1` are 10.4 nM and 62 nM.
Take `CN1CCN(CC(O)COc2ccn(-c3ccc(Cl)c(Cl)c3)n2)CC1` (stereo not drawn): the Ki in data set [1] was 233 nM; in data set [2], greater than 1000 nM.
In the same order, the values of `Clc1ccc(-n2ccc(OCCCN3CCOCC3)n2)cc1Cl` are 16.1 nM and 394 nM.
In the same order, the values of `CCN(CC)CCOc1cc(C)n(-c2ccc(Cl)c(Cl)c2)n1` are 9.9 nM and 250 nM.
In the same order, the values of `Clc1ccc(-n2ccc(OCCCCN3CCSCC3)n2)cc1Cl` are 10.2 nM and 344 nM.
For the molecule `Cc1cc(OCCN2CCCCC2)nn1-c1ccc2ccccc2c1`, the Ki in data set [1] came to 10 nM; in data set [2], 84.7 nM.
As for `Clc1ccc(-n2ccc(OCCCN3CCCCC3)n2)cc1Cl`, the Ki is 9.6 nM in data set [1] and 37.2 nM in data set [2].
On the same counts, the results for `Cc1cc(OCCN2CCC(C)CC2)nn1-c1ccc(Cl)c(Cl)c1` are 8.4 nM and 161 nM.
As for `Cc1cc(OCCCN2CCOCC2)nn1-c1ccc(Cl)c(Cl)c1`, the values for the Ki in data set [1] and in data set [2] were 18.9 nM and 638 nM, respectively.
In the case of `Cc1cc(OCCN2C[C@@H](C)O[C@@H](C)C2)nn1-c1ccc2ccccc2c1`, the values for the Ki in data set [1] and in data set [2] were 33.8 nM and greater than 1000 nM, respectively. Moreover, the microsomal CLint at 10 µM in data set [3] is 25 µL/min/mg. This molecule came in with an IC50 in data set [4] of 7400 nM.

One may read the Ki as the equilibrium dissociation constant of an inhibitor or competing ligand from its target. Read a high Ki as lower affinity. By inhibition in vivo is commonly meant the relative decrease from the control value, in per cent. Broadly, the IC50 is the midpoint of a concentration-inhibition curve.
